Consider three compounds from patent US9695155B2, “Herbicidal substituted pyrimidinyloxy benzene compounds” (E. I. DU PONT DE NEMOURS AND COMPANY, priority 2013, dated 2017).

The test system of one test is canarygrass. In words: Test D postemergence. It is filed as in vivo, Phalaris minor. The source says: (§1) Seeds of plant species selected from bluegrass (annual bluegrass, Poa annua), blackgrass (Alopecurus myosuroides), canarygrass (littleseed canarygrass, Phalaris minor), chickweed (common chickweed, Stellaria media), galium (catchweed bedstraw, Galium aparine), bromegrass, downy (downy bromegrass, Bromus tectorum), field poppy (Papaver rhoeas), field violet (Viola arvensis), green foxtail (Setaria viridis), deadnettle (henbit deadnettle, Lamium amplexicaule), Italian ryegrass (Lolium multiflorum), kochia (Kochia scoparia), lambsquarters (Chenopodium album), oilseed rape (Brassica napus), pigweed (Amaranthus retroflexus), chamomile (scentless chamomile, Matricaria inodora), Russian thistle (Salsola kali), speedwell (bird's-eye speedwell, Veronica persica), spring barley (Hordeum vulgare), spring wheat (Triticum aestivum), wild buckwheat (Polygonum convolvulus), wild mustard (Sinapis arvensis), wild oat (Avena fatua), wild radish (Raphanus raphanistrum), windgrass (Apera spica-venti), winter barley (Hordeum vulgare), and winter wheat (Triticum aestivum) were planted into a silt loam soil and treated preemergence with test chemicals formulated in a non-phytotoxic solvent mixture which included a surfactant.
(§2) At the same time, these species were planted in pots containing Redi-Earth® planting medium (Scotts Company, 14111 Scottslawn Road, Marysville, Ohio 43041) comprising spaghnum peat moss, vermiculite, wetting agent and starter nutrients and treated with postemergence applications of the test chemicals formulated in the same manner. Plants ranged in height from 2 to 18 cm (1- to 4-leaf stage). Treated plants and controls were maintained in a controlled growth environment for 7 to 21 days after which time all species were compared to controls and visually evaluated. Plant response ratings, summarized in Table D, are based on a scale of 0 to 100 where 0 is no effect and 100 is complete control. A dash (-) response means no test result.

The next test has as its system chamomile. Kind of test: Test D preemergence. It is filed as in vivo, Matricaria inodora.
Description: as §1, §2

The subject of a further test is speedwell. In words: Test D postemergence. The test is classed as in vivo, Veronica persica.
Description: as §1, §2

The next test has as its system Italian ryegrass. In words: Test D postemergence. It is filed as in vivo, Lolium multiflorum.
Description: as §1, §2

The test system of the next test is galium. In words: Test D postemergence. The test is classed as in vivo, Galium aparine.
Description: as §1, §2

Setting [1] is: Phalaris minor, post-emergence, 31 g ai/ha, scale 0 to 100 (0 no effect, 100 complete control), read-out: Plant response rating, Canarygrass.
Where [2] appears, read: Phalaris minor, post-emergence, 62 g ai/ha, scale 0 to 100 (0 no effect, 100 complete control), read-out: Plant response rating, Canarygrass.
Where [3] appears, read: Phalaris minor, post-emergence, 125 g ai/ha, scale 0 to 100 (0 no effect, 100 complete control), read-out: Plant response rating, Canarygrass.
[4] abbreviates: Tripleurospermum inodorum, pre-emergence, 31 g ai/ha, scale 0-100, read-out: Plant response rating, Chamomile.
The mark [5] stands for this setting: Tripleurospermum inodorum, pre-emergence, 62 g ai/ha, scale 0-100, read-out: Plant response rating, Chamomile.
[6] abbreviates: Tripleurospermum inodorum, pre-emergence, 125 g ai/ha, scale 0-100, read-out: Plant response rating, Chamomile.
Setting [7] is: Veronica persica, post-emergence, 31 g ai/ha, scale 0 to 100 (0 no effect, 100 complete control), read-out: Plant response rating, Speedwell.
[8] abbreviates: Veronica persica, post-emergence, 62 g ai/ha, scale 0 to 100 (0 no effect, 100 complete control), read-out: Plant response rating, Speedwell.
Where [9] appears, read: Veronica persica, post-emergence, 125 g ai/ha, scale 0 to 100 (0 no effect, 100 complete control), read-out: Plant response rating, Speedwell.
The mark [10] stands for this setting: Lolium multiflorum, post-emergence, 31 g ai/ha, scale 0 to 100 (0 no effect, 100 complete control), read-out: Plant response rating, Ryegrass, Italian.
Setting [11] is: Lolium multiflorum, post-emergence, 62 g ai/ha, scale 0 to 100 (0 no effect, 100 complete control), read-out: Plant response rating, Ryegrass, Italian.
The mark [12] stands for this setting: Lolium multiflorum, post-emergence, 125 g ai/ha, scale 0 to 100 (0 no effect, 100 complete control), read-out: Plant response rating, Ryegrass, Italian.
Setting [13] is: Galium, post-emergence, 31 g ai/ha, scale 0 to 100 (0 no effect, 100 complete control), read-out: Plant response rating, Galium.
[14] abbreviates: Galium, post-emergence, 62 g ai/ha, scale 0 to 100 (0 no effect, 100 complete control), read-out: Plant response rating, Galium.
Setting [15] is: Galium, post-emergence, 125 g ai/ha, scale 0 to 100 (0 no effect, 100 complete control), read-out: Plant response rating, Galium.
The mark [16] stands for this setting: 31 g ai/ha, scale 0 to 100 (0 no effect, 100 complete control).
Setting [17] is: 62 g ai/ha, scale 0 to 100 (0 no effect, 100 complete control).
The mark [18] stands for this setting: 125 g ai/ha, scale 0 to 100 (0 no effect, 100 complete control).

SMILES strings stand for the structures.

In the case of `N#Cc1cccc(Oc2ncc(Cl)cn2)c1-n1cc(Br)cn1` [Compound 52, 2-(4-bromo-1H-pyrazol-1-yl)-3-[(5-chloro-2-pyrimidinyl)oxy]benzonitrile], the pest or weed control at 31 g/ha in the test with canarygrass (setting [1]) is 35%; with chamomile (setting [4]), 15%; with speedwell (setting [7]) it was 70%; with Italian ryegrass (setting [10]), 5%; in the test on galium (setting [13]) it was 70%. Also, the pest or weed control at 62 g/ha is 35% in the test on canarygrass (setting [2]); 65% with chamomile (setting [5]); 95% with speedwell (setting [8]); 5% in the test with Italian ryegrass (setting [11]); 80% in the test with galium (setting [14]). The pest or weed control at 125 g/ha in the test on canarygrass (setting [3]) was 50%; in the test on chamomile (setting [6]), 60%; in the test with speedwell (setting [9]), 100%; in the test with Italian ryegrass (setting [12]) it was 20%; in the test on galium (setting [15]) it was 95%. Besides, the pest or weed control at 250 g/ha in the test on canarygrass (Phalaris minor, post-emergence, 250 g ai/ha, scale 0 to 100 (0 no effect, 100 complete control), read-out: Plant response rating, Canarygrass) is 60%; with chamomile (Tripleurospermum inodorum, pre-emergence, 250 g ai/ha, scale 0-100, read-out: Plant response rating, Chamomile), 80%; with speedwell (Veronica persica, post-emergence, 250 g ai/ha, scale 0 to 100 (0 no effect, 100 complete control), read-out: Plant response rating, Speedwell), 100%; in the test with Italian ryegrass (Lolium multiflorum, post-emergence, 250 g ai/ha, scale 0 to 100 (0 no effect, 100 complete control), read-out: Plant response rating, Ryegrass, Italian), 35%; in the test with galium (Galium, post-emergence, 250 g ai/ha, scale 0 to 100 (0 no effect, 100 complete control), read-out: Plant response rating, Galium), 100%.

As for `FCc1cccc(Oc2ncc(Cl)cn2)c1-n1cc(I)cn1` [Compound 245], the “Plant response rating, Canarygrass” value in the test with canarygrass (16 g ai/ha, scale 0-100) was 0; in the test on canarygrass (setting [16]), 20; in the test with canarygrass (setting [17]) it was 25; in the test with canarygrass (setting [18]), 35. Further, the “Plant response rating, Chamomile” value in the test on chamomile (16 g ai/ha, scale 0 (no effect) to 100 (complete control)) turned out to be 25; in the test with chamomile (31 g ai/ha, scale 0-100), 30; with chamomile (62 g ai/ha, scale 0-100), 55; in the test on chamomile (125 g ai/ha, scale 0-100), 100. Besides, the “Plant response rating, Speedwell” value is 100 with speedwell (16 g ai/ha, scale 0-100); 100 in the test with speedwell (setting [16]); 100 with speedwell (setting [17]); 100 with speedwell (setting [18]). The “Plant response rating, Ryegrass, Italian” value with Italian ryegrass (16 g ai/ha, scale 0-100) turned out to be 0; in the test on Italian ryegrass (setting [16]), 10; in the test on Italian ryegrass (setting [17]), 20; with Italian ryegrass (setting [18]), 20. Moreover, the “Plant response rating, Galium” value in the test with galium (16 g ai/ha, scale 0-100) is listed as 70; in the test on galium (setting [16]), 75; in the test on galium (setting [17]), 90; in the test with galium (setting [18]) it was 98.

As to `Fc1cccc(Oc2ncc(Cl)cn2)c1-n1cc(C(F)F)nn1` [Compound 141, 5-chloro-2-[2-[4-(difluoromethyl)-1H-1,2,3-triazol-1-yl]-3-fluorophenoxy]pyrimidine], the pest or weed control at 16 g/ha was 10% in the test on canarygrass (Phalaris minor, post-emergence, 16 g ai/ha, scale 0-100, read-out: Plant response rating, Canarygrass); 90% in the test on chamomile (Tripleurospermum inodorum, pre-emergence, 16 g ai/ha, scale 0 (no effect) to 100 (complete control), read-out: Plant response rating, Chamomile); 100% in the test on speedwell (Veronica persica, post-emergence, 16 g ai/ha, scale 0-100, read-out: Plant response rating, Speedwell); 5% with Italian ryegrass (Lolium multiflorum, post-emergence, 16 g ai/ha, scale 0-100, read-out: Plant response rating, Ryegrass, Italian); 95% in the test with galium (Galium, post-emergence, 16 g ai/ha, scale 0-100, read-out: Plant response rating, Galium). Further, the pest or weed control at 31 g/ha in the test with canarygrass (setting [1]) worked out at 25%; in the test on chamomile (setting [4]), 100%; with speedwell (setting [7]) it was 100%; with Italian ryegrass (setting [10]), 15%; with galium (setting [13]), 98%. Besides, the pest or weed control at 62 g/ha with canarygrass (setting [2]) amounted to 35%; in the test on chamomile (setting [5]), 70%; in the test on speedwell (setting [8]), 100%; in the test on Italian ryegrass (setting [11]), 20%; in the test with galium (setting [14]), 98%. For the same compound, the pest or weed control at 125 g/ha is 55% in the test with canarygrass (setting [3]); 100% with chamomile (setting [6]); 100% with speedwell (setting [9]); 25% in the test on Italian ryegrass (setting [12]); 98% in the test on galium (setting [15]).
